{"source": "patent US12233144B2", "about": "“Method for stabilizing retinoic acid precursors and a skin benefit composition with stabilized retinoic acid precursors” (Conopco, Inc., priority 2016, dated 2025)", "key": {"[1]": {"test": "Storage stability of retinoic acid precursor (RAP) in caprylic capric triglyceride at 45° C, RAP amount by HPLC", "format": "physicochemical", "conditions": "for Initial RAP Concentration, Week 0 / RAP Concentration, Week 1 / RAP Concentration, Week 4 / RAP Concentration, Week 20: Example 1, caprylic capric triglyceride carrier, storage 45° C, ER 0.35% where present", "description": "Compositions were prepared with caprylic capric triglyceride as the carrier to 100%. Storage was maintained at 45° C. Assessment of RAP amount in the formulae was achieved via HPLC using ASTM Standards. […]"}, "[2]": {"test": "Storage stability of retinoic acid precursor (RAP) in caprylic capric triglyceride at 45° C, RAP amount by HPLC", "format": "physicochemical", "conditions": "Example 3; RAP alone, no SBA (ratio —)"}}, "note": "Where two headings read alike, the source gives them in different places.", "data": [{"smiles": "CCc1ccc(O)cc1O", "note": "[4-ethyl resorcinol]", "values": [{"measurement": "Effect on stability of the RAPs (in words)", "setting": "[1]", "result": "improves the stability of the RAPs by preventing oxidation"}]}, {"smiles": "COc1ccc(C(=O)COC(=O)\\C=C(C)/C=C/C=C(C)/C=C/C2=C(C)CCCC2(C)C)cc1", "note": "[Retextra ®, hydroxyanasatil retinoate]", "values": [{"measurement": "Week 4 % Remaining", "setting": "[1]", "result": 0, "unit": "%"}, {"measurement": "Week 20 % Remaining", "setting": "[1]", "result": 0, "unit": "%"}, {"measurement": "Initial RAP Concentration, Week 0", "setting": "[1]", "result": 0.36, "unit": "%"}, {"measurement": "RAP Concentration, Week 1", "setting": "[1]", "result": 0.14, "unit": "%"}, {"measurement": "RAP Concentration, Week 4", "setting": "[1]", "result": 0, "unit": "%"}, {"measurement": "RAP Concentration, Week 20", "setting": "[1]", "result": 0, "unit": "%"}]}, {"smiles": "CC1=C(/C=C/C(C)=C/C=C/C(C)=C/CO)C(C)(C)CCC1", "note": "[Retinol]", "values": [{"measurement": "Week 4 % Remaining", "setting": "[1]; 4 week, 0.1 %", "result": 1, "unit": "%"}, {"measurement": "Week 20 % Remaining", "setting": "[1]; 20 week, 0.1 %", "result": 0, "unit": "%"}, {"measurement": "Initial RAP Concentration, Week 0", "setting": "[1]", "result": 0.1, "unit": "%"}, {"measurement": "RAP Concentration, Week 1", "setting": "[1]", "result": 0.042, "unit": "%"}, {"measurement": "RAP Concentration, Week 4", "setting": "[1]", "result": 0.001, "unit": "%"}, {"measurement": "RAP Concentration, Week 20", "setting": "[1]", "result": 0, "unit": "%"}, {"measurement": "Week 0 Concentration", "setting": "[2]", "result": 0.1}, {"measurement": "Week 1 Concentration", "setting": "[2]", "result": 0.042}, {"measurement": "Week 4 Concentration", "setting": "[2]", "result": 0.001}]}, {"smiles": "CCC(=O)OC/C=C(C)/C=C/C=C(C)/C=C/C1=C(C)CCCC1(C)C", "note": "[Retinyl Propionate]", "values": [{"measurement": "Week 4 % Remaining", "setting": "[1]", "result": 84, "unit": "%"}, {"measurement": "Week 20 % Remaining", "setting": "[1]", "result": 0, "unit": "%"}, {"measurement": "Initial RAP Concentration, Week 0", "setting": "[1]", "result": 0.38, "unit": "%"}, {"measurement": "RAP Concentration, Week 1", "setting": "[1]", "result": "No"}, {"measurement": "RAP Concentration, Week 4", "setting": "[1]", "result": 0.32, "unit": "%"}, {"measurement": "RAP Concentration, Week 20", "setting": "[1]", "result": 0, "unit": "%"}, {"measurement": "Week 0 Concentration", "setting": "[2]", "result": 0.38}, {"measurement": "Week 1 Concentration", "setting": "[2]", "result": 0.38}, {"measurement": "Week 4 Concentration", "setting": "[2]", "result": 0.32}]}]}
